Data taken from patent publication US6608032B1, “Medicinal compositions” (Takara Shuzo Co., Ltd., priority 1999, dated 2003).

Columns and labels:
DSEK cells = experiment: Growth of DSEK cells (in vitro rheumatoid model), WST-1; format: cell-based, human
Protocol: DSEK cell is a fibroblast cell line established from a synovial membrane of a human patient with chronic rheumatism and is held at Department of Second Internal Medicine, Integrated Medical Center, Saitama Collage of Medicine as an in vitro rheumatoid model. DSEK cells were cultured in Iscov-MEM medium (IMDM: Gibco-BRL) containing 10% FBS (Bio Whittaker) at 37° C. in the presence of 5% CO2 to saturation of culture vessel. The cells were suspended in the same medium at a concentration of 3×10^4 cells/ml using a trypsin-EDTA solution (Bio Whittaker). 200 μl of the suspension was dispensed into each well of a 96-well microtiter plate (Falcon). […]
10 μl of Premix WST-1 (Takara Shuzo, MK400) was added to one of the wells at intervals of 24 hours up to 72 hours after the medium change. The mixture was reacted at 37° C. for 3.5 hours. The degree of cell growth was expressed by a value obtained by subtracting the absorbance at 650 nm (A650) from the absorbance at 450 nm (A450).

human IL-10 = experiment: IL-10 production from DSEK cells (ELISA); format: cell-based; details: DSEK culture supernatant
Protocol: (§1) 150 μl of a culture supernatant was collected from a well containing a culture of DSEK cells over time at intervals of 24 hours. The effects of agarobiose on the production (expression) of cytokines (human TGF-β, human FGF-β and human IL-10) from the cell were determined using ELISA kits specific for the respective cytokines (from Intergen for human FGF-β and human IL-10; and from Promega for human TGF-β).

human TGF-β = experiment: TGF-β production from DSEK cells (ELISA); format: cell-based; details: DSEK culture supernatant
Protocol: as §1

**Q.** `OC[C@H]1O[C@@H](O[C@H]2[C@H]3OC[C@@H]2OC(O)[C@H]3O)[C@H](O)[C@@H](O)[C@H]1O` (mixture of isomers) [Agarobiose, agarobiose] was tested. Which “Degree of cell growth (A450-650)” value (DSEK cells; 50 μM, 24 hr) did it give?
**A.** Its value is 1.00 A450-650.

**Q.** What about the “Degree of cell growth (A450-650)” value (DSEK cells; 50 μM, 48 hr) of the same compound?
**A.** Its value is 1.49 A450-650.

**Q.** And the “Degree of cell growth (A450-650)” value (DSEK cells; 50 μM, 72 hr)?
**A.** Its value is 1.27 A450-650.

**Q.** What about the “Degree of cell growth (A450-650)” value (DSEK cells; 100 μM, 24 hr) of the same compound?
**A.** The value was 0.88 A450-650.

**Q.** What about the “Degree of cell growth (A450-650)” value (DSEK cells; 100 μM, 48 hr) of the same compound?
**A.** The value was 1.87 A450-650.

**Q.** And the “Degree of cell growth (A450-650)” value (DSEK cells; 100 μM, 72 hr)?
**A.** The value was 1.26 A450-650.

**Q.** And the “Degree of cell growth (A450-650)” value (DSEK cells; 200 μM, 24 hr)?
**A.** The value was 0.89 A450-650.

**Q.** What about the “Degree of cell growth (A450-650)” value (DSEK cells; 200 μM, 48 hr) of the same compound?
**A.** The value was 1.50 A450-650.

**Q.** What about the “Degree of cell growth (A450-650)” value (DSEK cells; 200 μM, 72 hr) of the same compound?
**A.** The value was 0.93 A450-650.

**Q.** What about the “Degree of cell growth (A450-650)” value (DSEK cells; 400 μM, 24 hr) of the same compound?
**A.** The value was 0.87 A450-650.

**Q.** What about the “Degree of cell growth (A450-650)” value (DSEK cells; 400 μM, 48 hr) of the same compound?
**A.** The value was 0.52 A450-650.

**Q.** And the “Degree of cell growth (A450-650)” value (DSEK cells; 400 μM, 72 hr)?
**A.** Its value is 0.47 A450-650.

**Q.** And the “Degree of cell growth (A450-650)” value (DSEK cells; 800 μM, 24 hr)?
**A.** Its value is 0.54 A450-650.

**Q.** And the “Degree of cell growth (A450-650)” value (DSEK cells; 800 μM, 48 hr)?
**A.** Its value is 0.45 A450-650.

**Q.** What about the “Degree of cell growth (A450-650)” value (DSEK cells; 800 μM, 72 hr) of the same compound?
**A.** Its value is 0.56 A450-650.

**Q.** And the IC50 (DSEK cells; 72 hours, read-out: concentration that resulted in the inhibition of the growth of half cells (IC50))?
**A.** The IC50 was 169 µM.

**Q.** And the “production of human IL-10” value (human IL-10)?
**A.** Its value is “activities of inhibiting the production”.

**Q.** What about the “production of human TGF-β” value (human TGF-β) of the same compound?
**A.** The value was “activities of inhibiting the production”.
